# Laboratory results taken from the supplement of paper PMC12076712.
# What was measured:
# Assay in all cases: pIC50, kinobeads binding competition
# NEK6 = NEK6 (UniProt Q9HC98); conditions: cell material: Lysate mix
# Procedure, shortened: (§1)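 Fold changes relative to vehicle, from biological duplicates, were fitted with logistic dose-response models in the R drc package to give pIC50. These fold changes came from TMT10 LC-MS/MS quantification of digested Kinobeads-bound proteins. Compound was applied at nine concentrations (top 30 μM) either to live Jurkat cells in 1:4 steps for 60 min at 37 °C before lysis, or to Jurkat lysate or a 1:1:1:1 HEK293/K-562/HepG2/placenta lysate mix in 1:5 steps for 60 min at 4 °C.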
# PLK1 = PLK1 (UniProt P53350)
# Procedure, shortened: as §1
# PRKAA2 = PRKAA2 (UniProt P54646); conditions: cell material: Lysate mix
# Procedure, shortened: as §1
# ULK1 = molecular target: T1, ULK1 (UniProt O75385)
# T1 sequence (whole entry): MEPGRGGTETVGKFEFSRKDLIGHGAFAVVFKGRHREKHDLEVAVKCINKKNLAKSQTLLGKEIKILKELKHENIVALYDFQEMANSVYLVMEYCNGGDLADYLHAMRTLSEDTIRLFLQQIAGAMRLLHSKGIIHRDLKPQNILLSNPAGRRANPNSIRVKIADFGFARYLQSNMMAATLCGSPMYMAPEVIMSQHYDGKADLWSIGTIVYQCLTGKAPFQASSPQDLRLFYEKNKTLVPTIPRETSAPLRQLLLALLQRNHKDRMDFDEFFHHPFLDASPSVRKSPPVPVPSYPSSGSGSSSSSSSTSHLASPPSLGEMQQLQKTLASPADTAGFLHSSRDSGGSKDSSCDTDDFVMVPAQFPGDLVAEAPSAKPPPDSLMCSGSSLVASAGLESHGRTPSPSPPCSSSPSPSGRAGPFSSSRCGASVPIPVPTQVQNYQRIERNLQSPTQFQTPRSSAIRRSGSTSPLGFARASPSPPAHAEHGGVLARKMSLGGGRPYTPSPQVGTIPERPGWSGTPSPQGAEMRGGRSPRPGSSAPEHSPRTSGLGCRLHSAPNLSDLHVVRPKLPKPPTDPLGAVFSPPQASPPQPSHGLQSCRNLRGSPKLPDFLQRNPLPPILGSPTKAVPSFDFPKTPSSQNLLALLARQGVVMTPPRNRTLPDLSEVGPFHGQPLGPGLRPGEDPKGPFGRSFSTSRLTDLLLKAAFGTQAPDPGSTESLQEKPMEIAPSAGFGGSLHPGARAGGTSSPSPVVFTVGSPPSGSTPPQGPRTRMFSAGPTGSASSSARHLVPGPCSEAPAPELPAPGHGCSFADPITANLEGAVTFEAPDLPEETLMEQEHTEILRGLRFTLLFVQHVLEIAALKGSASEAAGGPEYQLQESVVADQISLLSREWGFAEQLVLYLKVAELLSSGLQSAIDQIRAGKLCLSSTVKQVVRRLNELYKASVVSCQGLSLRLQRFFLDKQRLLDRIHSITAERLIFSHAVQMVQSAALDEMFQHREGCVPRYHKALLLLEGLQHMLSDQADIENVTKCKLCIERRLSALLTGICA
# Procedure, shortened: as §1
# UniProt O00444 = molecular target: T2, UniProt O00444
# T2 sequence (whole entry): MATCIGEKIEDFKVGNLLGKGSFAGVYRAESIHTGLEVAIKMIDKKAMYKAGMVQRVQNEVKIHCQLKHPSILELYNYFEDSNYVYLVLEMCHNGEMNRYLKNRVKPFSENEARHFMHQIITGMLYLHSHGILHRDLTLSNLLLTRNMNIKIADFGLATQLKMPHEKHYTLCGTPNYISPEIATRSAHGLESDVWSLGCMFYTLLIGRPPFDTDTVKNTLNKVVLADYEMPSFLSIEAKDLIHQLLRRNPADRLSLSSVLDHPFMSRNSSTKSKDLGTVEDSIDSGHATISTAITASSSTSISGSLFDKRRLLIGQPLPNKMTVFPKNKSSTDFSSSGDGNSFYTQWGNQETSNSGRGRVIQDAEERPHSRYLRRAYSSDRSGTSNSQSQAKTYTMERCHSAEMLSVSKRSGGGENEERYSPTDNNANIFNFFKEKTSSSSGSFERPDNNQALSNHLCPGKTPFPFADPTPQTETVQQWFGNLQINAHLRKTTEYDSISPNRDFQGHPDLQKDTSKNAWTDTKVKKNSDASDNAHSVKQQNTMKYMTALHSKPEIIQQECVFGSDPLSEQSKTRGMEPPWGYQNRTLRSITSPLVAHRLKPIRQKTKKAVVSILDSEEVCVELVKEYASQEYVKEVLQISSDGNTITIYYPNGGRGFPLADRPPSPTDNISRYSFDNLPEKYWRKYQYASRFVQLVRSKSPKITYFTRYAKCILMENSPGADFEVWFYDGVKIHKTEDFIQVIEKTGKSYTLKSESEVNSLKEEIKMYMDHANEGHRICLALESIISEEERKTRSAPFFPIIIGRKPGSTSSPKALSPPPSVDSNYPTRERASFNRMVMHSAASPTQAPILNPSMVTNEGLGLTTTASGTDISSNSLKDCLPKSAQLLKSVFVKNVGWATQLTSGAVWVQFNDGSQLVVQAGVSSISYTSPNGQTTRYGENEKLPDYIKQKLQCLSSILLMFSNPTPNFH
# Procedure, shortened: as §1
# UniProt P35626 = molecular target: T3, UniProt P35626
# T3 sequence (whole entry): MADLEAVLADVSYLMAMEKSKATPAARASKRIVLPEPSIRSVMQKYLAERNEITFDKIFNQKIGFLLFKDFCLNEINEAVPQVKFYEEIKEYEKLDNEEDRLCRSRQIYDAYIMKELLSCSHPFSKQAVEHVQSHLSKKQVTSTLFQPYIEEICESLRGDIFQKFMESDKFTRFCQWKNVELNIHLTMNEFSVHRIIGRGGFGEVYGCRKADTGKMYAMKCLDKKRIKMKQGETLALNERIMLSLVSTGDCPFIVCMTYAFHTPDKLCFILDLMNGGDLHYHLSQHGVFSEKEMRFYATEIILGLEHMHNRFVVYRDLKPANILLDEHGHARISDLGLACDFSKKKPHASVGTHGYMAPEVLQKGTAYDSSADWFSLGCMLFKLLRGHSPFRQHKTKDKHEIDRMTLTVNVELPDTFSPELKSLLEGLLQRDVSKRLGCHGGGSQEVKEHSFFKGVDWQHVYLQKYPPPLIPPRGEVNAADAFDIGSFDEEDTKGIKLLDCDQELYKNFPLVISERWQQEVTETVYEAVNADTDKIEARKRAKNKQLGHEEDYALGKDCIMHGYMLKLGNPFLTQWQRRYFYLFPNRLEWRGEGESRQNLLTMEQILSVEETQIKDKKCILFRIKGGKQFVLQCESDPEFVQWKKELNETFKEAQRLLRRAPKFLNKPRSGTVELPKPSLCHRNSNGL
# Procedure, shortened: as §1
# Chain of NEK6 (Q9HC98 whole entry): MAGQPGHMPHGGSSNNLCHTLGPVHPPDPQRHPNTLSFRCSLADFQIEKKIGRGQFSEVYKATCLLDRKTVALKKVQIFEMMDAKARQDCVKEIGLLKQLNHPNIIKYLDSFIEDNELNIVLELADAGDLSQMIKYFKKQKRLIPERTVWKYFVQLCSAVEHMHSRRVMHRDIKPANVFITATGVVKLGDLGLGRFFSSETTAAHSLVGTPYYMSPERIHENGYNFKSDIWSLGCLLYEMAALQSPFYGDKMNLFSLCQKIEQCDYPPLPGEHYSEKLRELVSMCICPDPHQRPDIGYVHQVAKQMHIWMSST
# Chain of PLK1 (P53350 whole entry): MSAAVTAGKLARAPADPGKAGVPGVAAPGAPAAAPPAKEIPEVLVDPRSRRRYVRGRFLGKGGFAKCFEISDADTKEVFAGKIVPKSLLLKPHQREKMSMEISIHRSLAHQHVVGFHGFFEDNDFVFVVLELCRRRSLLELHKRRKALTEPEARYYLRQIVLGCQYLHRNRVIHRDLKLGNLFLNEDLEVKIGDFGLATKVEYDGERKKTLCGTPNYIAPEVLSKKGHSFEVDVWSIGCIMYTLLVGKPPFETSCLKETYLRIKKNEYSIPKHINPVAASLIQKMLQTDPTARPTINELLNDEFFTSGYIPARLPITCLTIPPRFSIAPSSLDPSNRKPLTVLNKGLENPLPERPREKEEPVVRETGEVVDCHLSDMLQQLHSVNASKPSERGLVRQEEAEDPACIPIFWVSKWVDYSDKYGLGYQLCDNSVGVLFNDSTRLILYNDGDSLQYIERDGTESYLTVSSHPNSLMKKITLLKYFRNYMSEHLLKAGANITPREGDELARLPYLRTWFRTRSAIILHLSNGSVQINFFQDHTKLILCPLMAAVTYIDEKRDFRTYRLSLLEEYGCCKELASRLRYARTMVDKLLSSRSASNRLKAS
# Chain of PRKAA2 (P54646 whole entry, looked up): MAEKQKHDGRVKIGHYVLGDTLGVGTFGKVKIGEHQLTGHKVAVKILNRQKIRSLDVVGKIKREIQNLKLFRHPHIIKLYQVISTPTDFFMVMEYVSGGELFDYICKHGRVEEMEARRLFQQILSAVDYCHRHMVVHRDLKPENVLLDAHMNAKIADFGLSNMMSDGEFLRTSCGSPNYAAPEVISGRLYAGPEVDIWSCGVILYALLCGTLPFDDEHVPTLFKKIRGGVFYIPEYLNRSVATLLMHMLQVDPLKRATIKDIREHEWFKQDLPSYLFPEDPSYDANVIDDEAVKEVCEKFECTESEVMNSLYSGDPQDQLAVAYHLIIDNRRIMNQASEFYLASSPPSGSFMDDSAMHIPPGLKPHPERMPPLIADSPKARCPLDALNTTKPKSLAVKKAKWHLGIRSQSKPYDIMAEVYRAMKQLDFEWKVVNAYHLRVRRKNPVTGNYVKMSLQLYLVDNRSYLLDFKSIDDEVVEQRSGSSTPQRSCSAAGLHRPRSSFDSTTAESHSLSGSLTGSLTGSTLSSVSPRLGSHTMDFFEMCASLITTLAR
pIC50 (NEK6),pIC50 (PLK1; cell material: Lysate mix),pIC50 (PRKAA2),pIC50 (ULK1; cell material: Lysate mix),pIC50 (UniProt O00444; cell material: Lysate mix),pIC50 (UniProt P35626; cell material: Lysate mix),SMILES,pIC50 (PLK1; cell material: Jurkat cells),pIC50 (PLK1; cell material: Jurkat lysate),pIC50 (ULK1; cell material: Jurkat lysate),pIC50 (UniProt O00444; cell material: Jurkat cells),pIC50 (UniProt O00444; cell material: Jurkat lysate),pIC50 (UniProt P35626; cell material: Jurkat lysate),pIC50 (UniProt P35626; cell material: Jurkat cells)
< 4.52,< 4.52,5.5,< 4.52,< 4.52,< 4.52,O=C(NCCNC(=O)c1cc(Nc2cc(C3CC3)[nH]n2)nc(N2CCN(Cc3ccc(S(=O)(=O)F)cc3)CC2)n1)OC1CC/C=C/CCC1 (stereo not drawn),5.85,< 4.52,< 4.52,5.5,< 4.52,< 4.52,
< 4.52,< 4.52,7.04,4.9,5.81,< 4.52,CCNC(=O)c1cc(Nc2cc(C3CC3)[nH]n2)nc(N2CCN(Cc3ccc(S(=O)(=O)F)cc3)CC2)n1,,,,,,,
< 4.52,< 4.52,6.53,< 4.52,5.39,< 4.52,C#CCNC(=O)c1cc(Nc2cc(C)[nH]n2)nc(N2CCN(Cc3ccc(S(=O)(=O)F)cc3)CC2)n1,,,,,,,

# Continued, compound first:
SMILES,pIC50 (NEK6),pIC50 (PLK1; cell material: Lysate mix),pIC50 (PRKAA2),pIC50 (ULK1; cell material: Lysate mix),pIC50 (UniProt O00444; cell material: Lysate mix),pIC50 (UniProt P35626; cell material: Lysate mix),pIC50 (PLK1; cell material: Jurkat cells),pIC50 (PLK1; cell material: Jurkat lysate),pIC50 (ULK1; cell material: Jurkat lysate),pIC50 (UniProt O00444; cell material: Jurkat cells),pIC50 (UniProt O00444; cell material: Jurkat lysate),pIC50 (UniProt P35626; cell material: Jurkat lysate),pIC50 (UniProt P35626; cell material: Jurkat cells)
Cc1cc(Nc2cc(C(=O)NCCNC(=O)OC3CC/C=C/CCC3)nc(N3CCN(Cc4ccc(S(=O)(=O)F)cc4)CC3)n2)n[nH]1 (stereo not drawn),< 4.52,< 4.52,5.31,< 4.52,< 4.52,< 4.52,,,,,,,
CCNC(=O)c1cc(Nc2cc(C)[nH]n2)nc(N2CCN(Cc3ccc(S(=O)(=O)F)cc3)CC2)n1,< 4.52,< 4.52,7.35,< 4.52,5.97,< 4.52,,,,,,,
C#CCNC(=O)c1cc(Nc2cc(C3CC3)[nH]n2)nc(N2CCN(Cc3ccc(S(=O)(=O)F)cc3)CC2)n1,< 4.52,< 4.52,7.31,4.85,6.02,,5.83,< 4.52,< 4.52,5.96,5.44,< 4.52,5.77
